In patent US20040166079A1, “N-Lauroyl amino acid composition for slimming the human body” (priority 2003, published 2004):

Columns and labels:
[1] = target: T1, hyaluronidase (SIGMA), purified from bovine testicles (Bos taurus, UniProt Q2YDK3); experiment: Measurement of the activity of hyaluronidase (purified enzyme); format: biochemical; settings: hyaluronidase test, 60 minutes at 37° C.
T1 construct: purified from bovine testicles; purchased SIGMA; host or cells: bovine testicles
T1 sequence (Q2YDK3 36-553): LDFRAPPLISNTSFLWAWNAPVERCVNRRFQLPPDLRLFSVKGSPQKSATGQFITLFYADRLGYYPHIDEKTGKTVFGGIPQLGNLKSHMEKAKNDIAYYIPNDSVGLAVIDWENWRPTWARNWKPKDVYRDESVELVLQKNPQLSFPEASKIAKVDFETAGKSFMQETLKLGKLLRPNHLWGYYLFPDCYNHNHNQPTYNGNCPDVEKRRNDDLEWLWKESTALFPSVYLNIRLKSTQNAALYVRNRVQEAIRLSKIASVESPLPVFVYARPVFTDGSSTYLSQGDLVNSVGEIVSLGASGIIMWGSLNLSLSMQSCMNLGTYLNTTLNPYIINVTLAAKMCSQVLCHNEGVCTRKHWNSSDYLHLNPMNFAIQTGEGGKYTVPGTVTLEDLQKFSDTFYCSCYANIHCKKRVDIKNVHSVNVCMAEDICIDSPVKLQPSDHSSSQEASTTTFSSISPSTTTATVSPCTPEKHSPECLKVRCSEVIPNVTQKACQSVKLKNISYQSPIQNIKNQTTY
Method: The objective of this test is to measure the activity of hyaluronidase. This enzyme, which is naturally found in the skin, degrades hyaluronic acid. The study is carried out in vitro on the purified enzyme.
The hyaluronidase (SIGMA), purified from bovine testicles, is incubated at 0.01 U/ml in the presence of hyaluronic acid at 0.02 mg/ml, with or without test product. The incubation is carried out for 60 minutes at 37° C.
Evaluation of the effects: After the incubation, the hyaluronic acid not degraded by the enzyme is precipitated by a 24 mM sodium acetate/79. mM acetic acid mixture (10 minutes, room temperature). The precipitate is measured by spectrophotometry at 590 nm.
The effect of the test products is compared to that observed in the presence of dipotassium glycyrrhizinate, a reference hyaluronidase inhibitor.

human pancreatic lipase = target: T2, human pancreatic lipase (Homo sapiens, UniProt P16233); experiment: Measurement of the activity of lipase (LIPASE-PS kit, absorbance 550 nm); format: biochemical; settings: relative to the control, 8 minutes at 37° C.
T2 construct: purchased SIGMA LIPASE-PS kit
T2 sequence (P16233 17-465): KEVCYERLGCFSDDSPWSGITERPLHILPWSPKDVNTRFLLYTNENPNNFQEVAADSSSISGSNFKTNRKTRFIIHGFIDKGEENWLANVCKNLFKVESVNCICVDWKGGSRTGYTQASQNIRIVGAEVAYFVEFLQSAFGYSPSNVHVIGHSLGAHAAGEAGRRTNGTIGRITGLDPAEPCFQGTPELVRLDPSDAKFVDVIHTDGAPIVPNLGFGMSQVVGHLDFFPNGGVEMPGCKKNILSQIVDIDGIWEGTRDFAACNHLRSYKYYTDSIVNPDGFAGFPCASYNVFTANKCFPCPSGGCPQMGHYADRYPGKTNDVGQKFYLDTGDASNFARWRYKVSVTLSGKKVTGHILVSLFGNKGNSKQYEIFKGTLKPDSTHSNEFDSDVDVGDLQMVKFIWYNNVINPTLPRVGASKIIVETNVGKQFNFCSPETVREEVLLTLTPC
T2 sequence (P02703 23-112 partner): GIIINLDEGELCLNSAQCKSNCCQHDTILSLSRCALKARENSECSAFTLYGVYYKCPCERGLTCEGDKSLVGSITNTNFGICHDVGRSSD
Method: Lipase is an enzyme which degrades triglycerides to fatty acids and glycerol according to the following reaction scheme: [drawing 5]
Inside the adipocytes, the free fatty acids can thus be removed from storage. […] It is based on an enzymatic test, using a purified enzyme.
A human pancreatic lipase (SIGMA, LIPASE-PS™ kit) is incubated in the presence of a diglyceride and a reaction system to produce a coloured quinone diimine which can be assayed by spectrophotometry (550 nm). The measurement of the absorbance at 550 nm is directly proportional to the activity of the lipase.
All the […] are provided in the LIPASE-PS™ kit (SIGMA) . The product is incubated with the reaction mixture for 8 minutes at 37° C.
The reaction system used is composed of:
The results are presented in the following table as a percentage activation of the lipase relative to the control.

[2] = incubation concentration 0.01 % DE

Structure (SMILES): Cn1c(=O)c2c(ncn2C)n(C)c1=O [Caffeine, 1,3,7-trimethyl-xanthine]
- Percentage inhibition of hyaluronidase activity ([1]; incubation concentration 0.001 % DE): 15%
- Percentage inhibition of hyaluronidase activity [1, 2]: 20%
- Percentage activation of the lipase (human pancreatic lipase; [2]): 0%
- Percentage activation of the lipase (human pancreatic lipase; incubation concentration 0.1 % DE): 10%
